Measured values from PubChem BioAssay (NCI).
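Cultured in 96-well plates, cells were exposed to test compound for 48 hours across five concentrations. At the TGI there is no net growth.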

Key:
Assay in all cases: growth of human tumour cells (NCI), 48 h
786-0 renal = tested on: 786-0 renal
A498 renal = tested on: A498 renal
A549 NSCLC = tested on: A549 NSCLC
ACHN renal = tested on: ACHN renal
BT-549 breast = tested on: BT-549 breast
CAKI-1 renal = tested on: CAKI-1 renal
COLO 205 colon = tested on: COLO 205 colon
DU-145 prostate = tested on: DU-145 prostate
EKVX NSCLC = tested on: EKVX NSCLC
HCT-116 colon = tested on: HCT-116 colon
HCT-15 colon = tested on: HCT-15 colon
HL-60(TB) leukemia = tested on: HL-60(TB) leukemia
HOP-62 NSCLC = tested on: HOP-62 NSCLC
HOP-92 NSCLC = tested on: HOP-92 NSCLC
HS 578T breast = tested on: HS 578T breast
HT29 colon = tested on: HT29 colon
IGROV1 ovarian = tested on: IGROV1 ovarian
KM12 colon = tested on: KM12 colon
LOX IMVI melanoma = tested on: LOX IMVI melanoma
M14 melanoma = tested on: M14 melanoma
MALME-3M melanoma = tested on: MALME-3M melanoma
MCF7 breast = tested on: MCF7 breast
MDA-MB-231 breast = tested on: MDA-MB-231 breast
MDA-MB-435 = tested on: MDA-MB-435
MDA-N = tested on: MDA-N
NCI-H226 lung = tested on: NCI-H226 lung
NCI-H23 lung = tested on: NCI-H23 lung
NCI-H460 lung = tested on: NCI-H460 lung
NCI/ADR-RES ovarian = tested on: NCI/ADR-RES ovarian
OVCAR-5 ovarian = tested on: OVCAR-5 ovarian
OVCAR-8 ovarian = tested on: OVCAR-8 ovarian
PC-3 prostate = tested on: PC-3 prostate
RXF 393 renal = tested on: RXF 393 renal
SF-268 CNS = tested on: SF-268 CNS
SF-539 CNS = tested on: SF-539 CNS
SK-MEL-2 melanoma = tested on: SK-MEL-2 melanoma
SK-MEL-28 melanoma = tested on: SK-MEL-28 melanoma
SK-MEL-5 melanoma = tested on: SK-MEL-5 melanoma
SN12C renal = tested on: SN12C renal
SNB-19 CNS = tested on: SNB-19 CNS
SNB-75 CNS = tested on: SNB-75 CNS
SW-620 colon = tested on: SW-620 colon
T-47D breast = tested on: T-47D breast
TK-10 renal = tested on: TK-10 renal
U251 CNS = tested on: U251 CNS
UACC-257 melanoma = tested on: UACC-257 melanoma
UACC-62 melanoma = tested on: UACC-62 melanoma
UO-31 renal = tested on: UO-31 renal
CCRF-CEM leukemia = tested on: CCRF-CEM leukemia
HCC-2998 colon = tested on: HCC-2998 colon
K-562 leukemia = tested on: K-562 leukemia
MOLT-4 leukemia = tested on: MOLT-4 leukemia
NCI-H522 lung = tested on: NCI-H522 lung
OVCAR-3 ovarian = tested on: OVCAR-3 ovarian
RPMI-8226 leukemia = tested on: RPMI-8226 leukemia
SF-295 CNS = tested on: SF-295 CNS
SK-OV-3 ovarian = tested on: SK-OV-3 ovarian
SR leukemia = tested on: SR leukemia

SMILES: Cc1ccc2nc(-c3nccn3C)cc(C(=O)NC(C)CN(C)C)c2c1 (stereo not given)
- TGI (786-0 renal): > 100 µM
- TGI (A498 renal): > 100 µM
- TGI (A549 NSCLC): > 100 µM
- TGI (ACHN renal): > 100 µM
- TGI (BT-549 breast): > 100 µM
- TGI (CAKI-1 renal): > 100 µM
- TGI (COLO 205 colon): > 100 µM
- TGI (DU-145 prostate): > 100 µM
- TGI (EKVX NSCLC): > 100 µM
- TGI (HCT-116 colon): > 100 µM
- TGI (HCT-15 colon): > 100 µM
- TGI (HL-60(TB) leukemia): > 100 µM
- TGI (HOP-62 NSCLC): > 100 µM
- TGI (HOP-92 NSCLC): > 100 µM
- TGI (HS 578T breast): > 100 µM
- TGI (HT29 colon): > 100 µM
- TGI (IGROV1 ovarian): > 100 µM
- TGI (KM12 colon): > 100 µM
- TGI (LOX IMVI melanoma): > 100 µM
- TGI (M14 melanoma): > 100 µM
- TGI (MALME-3M melanoma): > 100 µM
- TGI (MCF7 breast): > 100 µM
- TGI (MDA-MB-231 breast): > 100 µM
- TGI (MDA-MB-435): > 100 µM
- TGI (MDA-N): > 100 µM
- TGI (NCI-H226 lung): > 100 µM
- TGI (NCI-H23 lung): > 100 µM
- TGI (NCI-H460 lung): > 100 µM
- TGI (NCI/ADR-RES ovarian): > 100 µM
- TGI (OVCAR-5 ovarian): > 100 µM
- TGI (OVCAR-8 ovarian): > 100 µM
- TGI (PC-3 prostate): > 100 µM
- TGI (RXF 393 renal): > 100 µM
- TGI (SF-268 CNS): > 100 µM
- TGI (SF-539 CNS): > 100 µM
- TGI (SK-MEL-2 melanoma): > 100 µM
- TGI (SK-MEL-28 melanoma): > 100 µM
- TGI (SK-MEL-5 melanoma): > 100 µM
- TGI (SN12C renal): > 100 µM
- TGI (SNB-19 CNS): > 100 µM
- TGI (SNB-75 CNS): > 100 µM
- TGI (SW-620 colon): > 100 µM
- TGI (T-47D breast): > 100 µM
- TGI (TK-10 renal): > 100 µM
- TGI (U251 CNS): > 100 µM
- TGI (UACC-257 melanoma): > 100 µM
- TGI (UACC-62 melanoma): > 100 µM
- TGI (UO-31 renal): > 100 µM

SMILES: COc1cccc(C2c3cc4c(cc3OC(NNC(N)=O)C2C)OCO4)c1OC (stereo not given)
- TGI (786-0 renal): 16.5 µM
- TGI (A498 renal): 51.1 µM
- TGI (A549 NSCLC): 56 µM
- TGI (ACHN renal): > 100 µM
- TGI (BT-549 breast): > 100 µM
- TGI (CAKI-1 renal): 83.4 µM
- TGI (CCRF-CEM leukemia): > 100 µM
- TGI (COLO 205 colon): 27.8 µM
- TGI (DU-145 prostate): 83.1 µM
- TGI (EKVX NSCLC): > 100 µM
- TGI (HCC-2998 colon): > 100 µM
- TGI (HCT-116 colon): 27.6 µM
- TGI (HCT-15 colon): 77.7 µM
- TGI (HL-60(TB) leukemia): 57.4 µM
- TGI (HOP-62 NSCLC): 57.5 µM
- TGI (HOP-92 NSCLC): 57.8 µM
- TGI (HS 578T breast): 45.9 µM
- TGI (HT29 colon): 62.3 µM
- TGI (IGROV1 ovarian): 83.2 µM
- TGI (K-562 leukemia): 88 µM
- TGI (KM12 colon): 62 µM
- TGI (LOX IMVI melanoma): 45.6 µM
- TGI (M14 melanoma): 40.6 µM
- TGI (MALME-3M melanoma): 73.8 µM
- TGI (MCF7 breast): > 100 µM
- TGI (MDA-MB-231 breast): 81.6 µM
- TGI (MDA-MB-435): 70.1 µM
- TGI (MDA-N): 82.7 µM
- TGI (MOLT-4 leukemia): 66.8 µM
- TGI (NCI-H226 lung): 76.1 µM
- TGI (NCI-H23 lung): 77.8 µM
- TGI (NCI-H460 lung): 68 µM
- TGI (NCI-H522 lung): 61.5 µM
- TGI (OVCAR-3 ovarian): 50.2 µM
- TGI (OVCAR-5 ovarian): > 100 µM
- TGI (OVCAR-8 ovarian): 17.9 µM
- TGI (PC-3 prostate): 55 µM
- TGI (RPMI-8226 leukemia): 46.1 µM
- TGI (RXF 393 renal): 49.9 µM
- TGI (SF-268 CNS): > 100 µM
- TGI (SF-295 CNS): 43.3 µM
- TGI (SF-539 CNS): 37.5 µM
- TGI (SK-MEL-2 melanoma): 52.1 µM
- TGI (SK-MEL-28 melanoma): 72.7 µM
- TGI (SK-MEL-5 melanoma): 43.9 µM
- TGI (SK-OV-3 ovarian): 85.3 µM
- TGI (SN12C renal): > 100 µM
- TGI (SNB-19 CNS): > 100 µM
- TGI (SNB-75 CNS): 59.3 µM
- TGI (SR leukemia): 18.8 µM
- TGI (SW-620 colon): > 100 µM
- TGI (T-47D breast): > 100 µM
- TGI (TK-10 renal): 86.3 µM
- TGI (U251 CNS): 68.2 µM
- TGI (UACC-257 melanoma): 92.1 µM
- TGI (UACC-62 melanoma): 53 µM
- TGI (UO-31 renal): 86 µM
